Laboratory results reported in patent US10888544B2, “Methods for treating Gaucher disease” (Genzyme Corporation, priority 2017, dated 2021).
“And” between values parts separate entries of the source, which are not always exact repeats. Equal entries are not always repeated. Where two headings read alike, the source gives them in different places.

Assay: Single oral dose pharmacokinetic study of eliglustat tartrate in mild or moderate hepatic impairment and matched healthy subjects (Example 1)
Assay type: in vivo, human
Conditions: for AUC(0-inf) / AUC(0-t) / Cmax / Vd/F / Tmax: human, 100 mg
Protocol: A multi-center, open-label, single oral dose study of eliglustat tartrate administered to mild or moderate HI and normal hepatic function (healthy) matched (by body weight and cytochrome P450 [CYP] 2D6 phenotype) subjects was carried out to study the effect of mild and moderate hepatic impairment (HI) on the pharmacokinetics (PK) of eliglustat.
Approximately 8 subjects were planned to be enrolled into each HI group (mild or moderate HI) and 8 subjects with normal hepatic function matched to impaired subjects by weight and CYP2D6 phenotype. At least 6 CYP2D6 extensive metabolizers (EMs) were to be enrolled into each impairment group, with the remaining 2 subjects enrolled according to the following preference: at least 20 subjects were to be screened for each impairment group and if identified, up to 2 CYP2D6 poor metabolizers (PMs) were enrolled. If less than 2 PMs were identified, up to 2 CYP2D6 intermediate metabolizers (IMs) were to be enrolled for a total of 8 subjects per group. If less than 2 PMs or IMs were identified, up to 2 additional EMs were to be enrolled for a total of 8 subjects per group. If 2 PMs were identified prior to screening 20 subjects, screening may have been discontinued. If an eligible PM subject was identified after satisfying the above requirements and enrolling 8 subjects for an impairment group, this subject may still have been enrolled for that impairment group.
CYP2D6 EMs and IMs were to receive a single 100-mg dose of eliglustat tartrate, while CYP2D6 PMs were to receive a single 50-mg dose of eliglustat tartrate.
For HI subjects: Male (body weight between 50.0 and 125.0 kg, inclusive) or female subjects (body weight between 40.0 and 110.0 kg, inclusive) between 18 and 79 years, inclusive, with a body mass index between 18.0 and 37 kg/m^2, inclusive; having stable chronic liver disease assessed by medical history, physical examination, and laboratory values; with moderate HI (defined as Child-Pugh score of 7 to 9, inclusive) or mild HI (defined as Child-Pugh score of 5 to 6, inclusive). For healthy subjects: Male or female subjects, between 18 and 79 years, inclusive; body weight within 15% of the body weight of matched subjects with HI, and body mass index between 18.0 and 37 kg/m^2, inclusive; healthy subjects were also matched to HI groups by CYP2D6 phenotype predicted from genotype.
A single 100-mg capsule of eliglustat tartrate (equivalent to 84 mg of eliglustat) was administered to CYP2D6 EM or IM subjects with mild or moderate HI and matching healthy subjects.
Pharmacokinetics: The following PK parameters were calculated for eliglustat plasma concentrations using noncompartmental methods: Maximum plasma concentration observed (Cmax), area under the plasma concentration versus time curve calculated using the trapezoidal method from time zero to the time corresponding to the last quantifiable concentration tlast (AUClast), time to reach Cmax(tmax), area under the plasma concentration versus time curve extrapolated to infinity (AUC), terminal half-life associated with the terminal slope λz (t1/2z), time corresponding to the last concentration above the limit of quantification (tlast), apparent total body clearance of a drug from the plasma (CL/F), and apparent volume of distribution during the terminal (λz) phase (Vz/F).
Blood samples were collected at the following timepoints to assess plasma concentrations of eliglustat: predose and 0.5, 1, 1.5, 2, 2.5, 3, 4, 6, 8, 10, 12, 24, 36, and 48 hours postdose.
Eliglustat concentrations in plasma were determined using a validated liquid chromatography-tandem mass spectrometry method with a lower limit of quantification of 0.2 ng/mL.
Eliglustat PK parameters were summarized using descriptive statistics for each population group and for each CYP2D6 phenotype. […]

[1] = CYP2D6 EM, healthy, N=7, single 100 mg eliglustat tartrate oral, plasma
[2] = CYP2D6 EM, mild HI, N=6, single 100 mg eliglustat tartrate oral, plasma
[3] = CYP2D6 EM, moderate HI, N=7, single 100 mg eliglustat tartrate oral, plasma
[4] = CYP2D6 IM, healthy, N=1, single 100 mg eliglustat tartrate oral, plasma
[5] = CYP2D6 IM, mild HI, N=2, single 100 mg eliglustat tartrate oral, plasma
[6] = CYP2D6 IM, moderate HI, N=1, single 100 mg eliglustat tartrate oral, plasma
[7] = Mild HI vs Healthy, CYP2D6 EM subjects, single 100 mg eliglustat tartrate
[8] = Moderate HI vs Healthy, CYP2D6 EM subjects, single 100 mg eliglustat tartrate

CCCCCCCC(=O)N[C@H](CN1CCCC1)[C@H](O)c1ccc2c(c1)OCCO2 [eliglustat, N-((1R,2R)-1-(2,3-dihydrobenzo[b][1,4]dioxin-6-yl)-1-hydroxy-3-(pyrrolidin-1-yl)propan-2-yl)octanamide]
CL/F, geometric mean [1]: (1420) [40.1] L/h | CL/F, mean ± SD [1]: 1570 ± 628 L/h | t1/2z, geometric mean [1]: (7.03) [12.5] h | t1/2z, mean ± SD [1]: 7.08 h and 7.08 ± 0.881 h | tlast, median [1]: 24.00 h | CL/F, geometric mean [2]: (1230) [72.8]^ L/h | CL/F, mean ± SD [2]: 1980 ± 1440 L/h | t1/2z, geometric mean [2]: (7.13) [20.1] h | t1/2z, mean ± SD [2]: 7.25 ± 1.46 h | tlast, median [2]: 30.00 h | CL/F, geometric mean [3]: (275) [70.9] L/h | CL/F, mean ± SD [3]: 416 ± 295 L/h | t1/2z, geometric mean [3]: (10.3) [21.4]^ h | t1/2z, mean ± SD [3]: 10.5 h and 10.5 ± 2.25 h | tlast, median [3]: 48.00 h | CL/F [4]: 146 L/h | t1/2z [4]: 8.48 h | tlast [4]: 48.00 h | CL/F, mean [5]: 306 L/h | t1/2z, mean [5]: 9.34 h | tlast [5]: 48.00 h | CL/F [6]: 406 L/h | t1/2z [6]: 5.87 h | tlast [6]: 24.00 h | AUC geometric mean ratio, point estimate [7]: 1.15 | AUClast geometric mean ratio, point estimate [7]: 1.18 | CL/F geometric mean ratio, point estimate [7]: 0.87 | Cmax geometric mean ratio, point estimate [7]: 1.22 | Vz/F geometric mean ratio, point estimate [7]: 0.88 | AUC geometric mean ratio, point estimate [8]: 5.16 | AUClast geometric mean ratio, point estimate [8]: 5.35 | CL/F geometric mean ratio, point estimate [8]: 0.19 | Cmax geometric mean ratio, point estimate [8]: 2.81 | Vz/F geometric mean ratio, point estimate [8]: 0.28 | t1/2z geometric mean ratio, point estimate [8]: 1.47 | AUC(0-inf) (both sexes, plasma, oral, CYP2D6 IM, healthy, N=1, single 100 mg eliglustat tartrate oral, plasma, read-out: AUC (extrapolated to infinity)): 578 ng·h/mL | AUC(0-inf) (both sexes, plasma, oral, CYP2D6 IM, mild HI, N=2, single 100 mg eliglustat tartrate oral, plasma, read-out: AUC (extrapolated to infinity), mean): 346 ng·h/mL | AUC(0-t) (both sexes, plasma, oral, CYP2D6 IM, mild HI, N=2, single 100 mg eliglustat tartrate oral, plasma, read-out: AUClast, mean): 334 ng·h/mL | Cmax (both sexes, plasma, oral, CYP2D6 IM, mild HI, N=2, single 100 mg eliglustat tartrate oral, plasma, read-out: Cmax, mean): 35.9 ng/mL | Vd/F (both sexes, plasma, oral, CYP2D6 IM, mild HI, N=2, single 100 mg eliglustat tartrate oral, plasma, read-out: Vz/F, mean): 3910 L | Tmax (both sexes, plasma, oral, CYP2D6 IM, mild HI, N=2, single 100 mg eliglustat tartrate oral, plasma, read-out: tmax): 2 h | AUC(0-inf) (both sexes, plasma, oral, CYP2D6 IM, moderate HI, N=1, single 100 mg eliglustat tartrate oral, plasma, read-out: AUC (extrapolated to infinity)): 208 ng·h/mL | AUC(0-inf) (both sexes, plasma, po, CYP2D6 EM, healthy, N=7, single 100 mg eliglustat tartrate oral, plasma, read-out: AUC (extrapolated to infinity), geometric mean): 59.5 ng·h/mL | AUC(0-inf) (both sexes, plasma, po, CYP2D6 EM, healthy, N=7, single 100 mg eliglustat tartrate oral, plasma, read-out: AUC (extrapolated to infinity), mean ± SD): 69 ± 49.1 ng·h/mL | AUC(0-t) (both sexes, plasma, po, CYP2D6 EM, healthy, N=7, single 100 mg eliglustat tartrate oral, plasma, read-out: AUClast, geometric mean): 54.7 ng·h/mL | AUC(0-t) (both sexes, plasma, po, CYP2D6 EM, healthy, N=7, single 100 mg eliglustat tartrate oral, plasma, read-out: AUClast, mean ± SD): 63.9 ± 47.1 ng·h/mL | Cmax (both sexes, plasma, po, CYP2D6 EM, healthy, N=7, single 100 mg eliglustat tartrate oral, plasma, read-out: Cmax, geometric mean): 8.81 ng/mL | Cmax (both sexes, plasma, po, CYP2D6 EM, healthy, N=7, single 100 mg eliglustat tartrate oral, plasma, read-out: Cmax, mean ± SD): 10.4 ± 7.4 ng/mL | Vd/F (both sexes, plasma, po, CYP2D6 EM, healthy, N=7, single 100 mg eliglustat tartrate oral, plasma, read-out: Vz/F, geometric mean): 14400 L | Vd/F (both sexes, plasma, po, CYP2D6 EM, healthy, N=7, single 100 mg eliglustat tartrate oral, plasma, read-out: Vz/F, mean ± SD): 16000 ± 6020 L | Tmax (both sexes, plasma, po, CYP2D6 EM, healthy, N=7, single 100 mg eliglustat tartrate oral, plasma, read-out: tmax, median): 2.5 h | AUC(0-inf) (both sexes, plasma, po, CYP2D6 EM, mild HI, N=6, single 100 mg eliglustat tartrate oral, plasma, read-out: AUC (extrapolated to infinity), geometric mean): 68.5 ng·h/mL | AUC(0-inf) (both sexes, plasma, po, CYP2D6 EM, mild HI, N=6, single 100 mg eliglustat tartrate oral, plasma, read-out: AUC (extrapolated to infinity), mean ± SD): 172 ± 293 ng·h/mL | AUC(0-t) (both sexes, plasma, po, CYP2D6 EM, mild HI, N=6, single 100 mg eliglustat tartrate oral, plasma, read-out: AUClast, geometric mean): 64.3 ng·h/mL | AUC(0-t) (both sexes, plasma, po, CYP2D6 EM, mild HI, N=6, single 100 mg eliglustat tartrate oral, plasma, read-out: AUClast, mean ± SD): 166 ± 285 ng·h/mL | Cmax (both sexes, plasma, po, CYP2D6 EM, mild HI, N=6, single 100 mg eliglustat tartrate oral, plasma, read-out: Cmax, geometric mean): 10.7 ng/mL | Cmax (both sexes, plasma, po, CYP2D6 EM, mild HI, N=6, single 100 mg eliglustat tartrate oral, plasma, read-out: Cmax, mean ± SD): 22.4 ± 30.2 ng/mL | Vd/F (both sexes, plasma, po, CYP2D6 EM, mild HI, N=6, single 100 mg eliglustat tartrate oral, plasma, read-out: Vz/F, geometric mean): 12700 L | Vd/F (both sexes, plasma, po, CYP2D6 EM, mild HI, N=6, single 100 mg eliglustat tartrate oral, plasma, read-out: Vz/F, mean ± SD): 20000 ± 15600 L | Tmax (both sexes, plasma, po, CYP2D6 EM, mild HI, N=6, single 100 mg eliglustat tartrate oral, plasma, read-out: tmax, median): 1.75 h | AUC(0-inf) (both sexes, plasma, po, CYP2D6 EM, moderate HI, N=7, single 100 mg eliglustat tartrate oral, plasma, read-out: AUC (extrapolated to infinity), geometric mean): 307 ng·h/mL | AUC(0-inf) (both sexes, plasma, po, CYP2D6 EM, moderate HI, N=7, single 100 mg eliglustat tartrate oral, plasma, read-out: AUC (extrapolated to infinity), mean ± SD): 575 ± 696 ng·h/mL | AUC(0-t) (both sexes, plasma, po, CYP2D6 EM, moderate HI, N=7, single 100 mg eliglustat tartrate oral, plasma, read-out: AUClast, geometric mean): 293 ng·h/mL | AUC(0-t) (both sexes, plasma, po, CYP2D6 EM, moderate HI, N=7, single 100 mg eliglustat tartrate oral, plasma, read-out: AUClast, mean ± SD): 536 ± 642 ng·h/mL | Cmax (both sexes, plasma, po, CYP2D6 EM, moderate HI, N=7, single 100 mg eliglustat tartrate oral, plasma, read-out: Cmax, geometric mean): 24.8 ng/mL | Cmax (both sexes, plasma, po, CYP2D6 EM, moderate HI, N=7, single 100 mg eliglustat tartrate oral, plasma, read-out: Cmax, mean ± SD): 39.5 ± 43.4 ng/mL | Vd/F (both sexes, plasma, po, CYP2D6 EM, moderate HI, N=7, single 100 mg eliglustat tartrate oral, plasma, read-out: Vz/F, geometric mean): 4090 L | Vd/F (both sexes, plasma, po, CYP2D6 EM, moderate HI, N=7, single 100 mg eliglustat tartrate oral, plasma, read-out: Vz/F, mean ± SD): 5840 ± 4130 L | Tmax (both sexes, plasma, po, CYP2D6 EM, moderate HI, N=7, single 100 mg eliglustat tartrate oral, plasma, read-out: tmax, median): 4 h | AUC(0-t) (plasma, oral, CYP2D6 IM, healthy, N=1, single 100 mg eliglustat tartrate oral, plasma, read-out: AUClast): 568 ng·h/mL | Cmax (plasma, oral, CYP2D6 IM, healthy, N=1, single 100 mg eliglustat tartrate oral, plasma, read-out: Cmax): 75.9 ng/mL | Vd/F (plasma, oral, CYP2D6 IM, healthy, N=1, single 100 mg eliglustat tartrate oral, plasma, read-out: Vz/F): 1790 L | Tmax (plasma, oral, CYP2D6 IM, healthy, N=1, single 100 mg eliglustat tartrate oral, plasma, read-out: tmax): 2.5 h | AUC(0-t) (plasma, oral, CYP2D6 IM, moderate HI, N=1, single 100 mg eliglustat tartrate oral, plasma, read-out: AUClast): 197 ng·h/mL | Cmax (plasma, oral, CYP2D6 IM, moderate HI, N=1, single 100 mg eliglustat tartrate oral, plasma, read-out: Cmax): 35.6 ng/mL | Vd/F (plasma, oral, CYP2D6 IM, moderate HI, N=1, single 100 mg eliglustat tartrate oral, plasma, read-out: Vz/F): 3430 L | Tmax (plasma, oral, CYP2D6 IM, moderate HI, N=1, single 100 mg eliglustat tartrate oral, plasma, read-out: tmax): 1.52 h
